# Source: US20230151003A1, “COMPOUNDS AND METHODS OF USE” (Exelixis, Inc., priority 2020, published 2023)
# Assays:
# [1] = target: KDR (Homo sapiens, UniProt P35968); assay: KDR autophosphorylation ELISA in HUVEC cells; type: cell-based; design: endogenous in cells; host or cells: HUVEC (Lonza #C2519A); conditions: Table 3 Cellular Activities, VEGF165-stimulated, phospho-KDR ELISA
# How it was run: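 Read-out: phospho-KDR ELISA on cell lysates, quantified against a phospho-KDR standard, normalised to VEGF-stimulated DMSO (100%) and unstimulated (0%) wells, IC50 by 4-parameter fit. Cells were 24 h serum-starved HUVEC given compound for 1 h, then 100 ng/mL VEGF165 for 5 min.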
# [2] = target: T1, AXL (Homo sapiens, UniProt P30530); assay: AXL autophosphorylation ELISA in A-172 cells; type: cell-based; conditions: Table 3 Cellular Activities, Gas6-stimulated, phospho-AXL ELISA
# T1 construct: endogenous in cells; host or cells: A-172 glioblastoma cells (ATCC #CRL-1620)
# T1 sequence (P30530 26-894): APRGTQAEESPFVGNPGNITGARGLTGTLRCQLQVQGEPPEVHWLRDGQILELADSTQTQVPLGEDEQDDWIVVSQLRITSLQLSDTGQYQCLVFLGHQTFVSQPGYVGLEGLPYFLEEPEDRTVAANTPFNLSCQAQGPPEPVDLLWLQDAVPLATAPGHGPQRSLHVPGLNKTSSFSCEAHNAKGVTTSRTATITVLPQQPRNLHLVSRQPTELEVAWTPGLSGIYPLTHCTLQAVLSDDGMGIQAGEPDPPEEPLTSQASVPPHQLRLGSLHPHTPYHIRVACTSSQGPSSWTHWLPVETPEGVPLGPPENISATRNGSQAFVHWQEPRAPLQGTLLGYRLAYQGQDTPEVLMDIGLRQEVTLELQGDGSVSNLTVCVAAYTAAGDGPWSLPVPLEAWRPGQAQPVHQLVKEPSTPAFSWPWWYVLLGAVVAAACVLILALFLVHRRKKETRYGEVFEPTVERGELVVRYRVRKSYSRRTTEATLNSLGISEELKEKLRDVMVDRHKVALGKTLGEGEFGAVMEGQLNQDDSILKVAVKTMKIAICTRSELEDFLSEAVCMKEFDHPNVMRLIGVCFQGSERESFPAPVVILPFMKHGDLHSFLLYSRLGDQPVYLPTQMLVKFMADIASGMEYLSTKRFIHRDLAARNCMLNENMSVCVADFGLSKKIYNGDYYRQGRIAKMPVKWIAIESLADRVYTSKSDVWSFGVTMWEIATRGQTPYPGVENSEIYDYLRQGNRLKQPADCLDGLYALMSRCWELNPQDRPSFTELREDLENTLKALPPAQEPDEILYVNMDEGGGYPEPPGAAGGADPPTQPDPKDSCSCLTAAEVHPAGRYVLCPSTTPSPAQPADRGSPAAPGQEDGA
# Protocol: A-172 glioblastoma cells (ATCC #CRL-1620) were seeded at 2.5×10^5 cells/well onto 24-well plates (Greiner #662165), in DMEM (Thermo Fisher #11995-040) containing 10% FBS (Thermo Fisher #26140-079), 1% MEM NEAA (Thermo Fisher #11140-050), 1% GlutaMax (Thermo Fisher #35050-061), and 1% Penicillin Streptomycin (Thermo Fisher #15140-122). A-172 cells were incubated at 37° C., 5% CO2 for 24 h and then starved for 24 h in serum-free medium. Test compounds were serially diluted to produce an 8-point dose curve in fresh serum-free medium to a final concentration of 0.3% DMSO (vehicle) and added to the cells and incubated for 1 h. Cells were then stimulated with 1 μg/mL recombinant human Gas6 (R&D Systems #885-GSB-500) for 15 min, washed with cold PBS, and immediately lysed with 150 μL of cold 1× lysis buffer [20 mM Tris, 137 mM sodium chloride, 2 mM EDTA, 10% glycerol, 1% NP-40 alternative, 1 mM activated sodium orthovanadate, 1 mM PefaBloc SC (Sigma-Aldrich #11429868001), protease/phosphatase inhibitor tablet (Thermo Fisher #A32959)]. Lysates were collected and 100 μL/well added into the human phospho-AXL DuoSet IC ELISA (R&D Systems #DYC2228-2). Assay was performed according to manufacturer's instructions and sample phospho-AXL concentrations were extrapolated using human phospho-AXL control (R&D Systems #841645) as a standard. Positive control wells (100% activity) contained Gas6-stimulated, DMSO-treated cell lysates. Negative control wells (0% activity) contained Gas6-stimulated, reference inhibitor-treated cell lysates. IC50 values were calculated by nonlinear regression analysis using a 4-parameter logistic curve fit in ActivityBase XE (IDBS).
# Chain of KDR (P35968 20-1356): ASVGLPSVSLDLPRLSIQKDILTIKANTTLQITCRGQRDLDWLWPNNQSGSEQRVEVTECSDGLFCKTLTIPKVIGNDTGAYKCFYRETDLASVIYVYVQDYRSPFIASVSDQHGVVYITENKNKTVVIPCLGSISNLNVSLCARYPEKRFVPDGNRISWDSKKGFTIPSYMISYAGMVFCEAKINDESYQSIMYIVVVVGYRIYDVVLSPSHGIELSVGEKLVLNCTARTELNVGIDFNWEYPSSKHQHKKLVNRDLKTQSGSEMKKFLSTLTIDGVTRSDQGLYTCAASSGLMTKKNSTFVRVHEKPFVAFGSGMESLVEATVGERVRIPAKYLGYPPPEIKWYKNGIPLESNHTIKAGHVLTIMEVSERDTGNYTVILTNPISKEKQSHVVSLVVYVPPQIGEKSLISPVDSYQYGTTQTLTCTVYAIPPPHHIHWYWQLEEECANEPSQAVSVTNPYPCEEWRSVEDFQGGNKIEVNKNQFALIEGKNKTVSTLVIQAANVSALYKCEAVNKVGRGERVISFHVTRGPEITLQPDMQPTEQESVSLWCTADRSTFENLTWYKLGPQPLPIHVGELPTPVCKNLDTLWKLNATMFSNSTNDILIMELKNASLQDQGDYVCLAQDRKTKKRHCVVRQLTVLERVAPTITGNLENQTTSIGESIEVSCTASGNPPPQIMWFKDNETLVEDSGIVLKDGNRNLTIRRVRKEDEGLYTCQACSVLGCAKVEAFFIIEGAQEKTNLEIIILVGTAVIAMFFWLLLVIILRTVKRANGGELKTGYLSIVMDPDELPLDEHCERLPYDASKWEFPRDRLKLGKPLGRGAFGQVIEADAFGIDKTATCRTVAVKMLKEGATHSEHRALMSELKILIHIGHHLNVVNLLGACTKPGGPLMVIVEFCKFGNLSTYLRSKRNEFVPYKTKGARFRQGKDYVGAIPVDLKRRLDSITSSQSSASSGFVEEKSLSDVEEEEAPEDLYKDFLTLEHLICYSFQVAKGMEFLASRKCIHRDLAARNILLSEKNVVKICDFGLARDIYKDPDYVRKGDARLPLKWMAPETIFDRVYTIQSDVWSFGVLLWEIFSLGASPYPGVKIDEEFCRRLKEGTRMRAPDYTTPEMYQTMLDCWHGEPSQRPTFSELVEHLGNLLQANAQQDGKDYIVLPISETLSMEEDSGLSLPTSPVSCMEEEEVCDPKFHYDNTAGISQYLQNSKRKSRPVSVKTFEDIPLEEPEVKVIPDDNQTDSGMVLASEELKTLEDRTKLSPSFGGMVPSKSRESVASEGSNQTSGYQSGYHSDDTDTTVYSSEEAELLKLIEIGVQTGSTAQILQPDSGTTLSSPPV
Structure (SMILES),IC50 [1],IC50 [2]
"COc1cc2nccc(Oc3ccc(NC(=O)c4cc(C(C)=O)c(C)n(-c5ccc(F)cn5)c4=O)cc3F)c2nc1OC [Compound 59, 5-Acetyl-N-[4-[(6,7-dimethoxy-1,5-naphthyridin-4-yl)oxy]-3-fluorophenyl]-1-(5-fluoropyridin-2-yl)-6-methyl-2-oxopyridine-3-carboxamide]",100 to 300 nM,≤ 100 nM
"COc1cc2nccc(Oc3ccc(NC(=O)c4c(C)n(C)cc(-c5ccc(F)cn5)c4=O)cc3)c2nc1OC [Compound 72, N-[4-[(6,7-Dimethoxy-1,5-naphthyridin-4-yl)oxy]phenyl]-5-(5-fluoropyridin-2-yl)-1,2-dimethyl-4-oxopyridine-3-carboxamide]",300 to 1000 nM,≤ 100 nM
"COc1cc2nccc(Oc3ccc(NC(=O)c4c(C)n(C)c(C)c(-c5coc6ccccc56)c4=O)cc3F)c2nc1OC [Compound 262, 5-(1-Benzofuran-3-yl)-N-[4-[(6,7-dimethoxy-1,5-naphthyridin-4-yl)oxy]-3-fluorophenyl]-1,2,6-trimethyl-4-oxopyridine-3-carboxamide]",300 to 1000 nM,≤ 100 nM
"COc1ccc2nccc(Oc3ccc(NC(=O)c4ccc(C)n(-c5ccc(F)cn5)c4=O)cc3F)c2c1 [Compound 49, N-[3-Fluoro-4-(6-methoxyquinolin-4-yl)oxyphenyl]-1-(5-fluoropyridin-2-yl)-6-methyl-2-oxopyridine-3-carboxamide]",≤ 100 nM,≤ 100 nM
"COc1cc2nccc(Oc3ccc(NC(=O)c4c(C)ncc(-c5ccccn5)c4O)cc3F)c2nc1OC [Compound 69, N-[4-[(6,7-Dimethoxy-1,5-naphthyridin-4-yl)oxy]-3-fluorophenyl]-4-hydroxy-2-methyl-5-pyridin-2-ylpyridine-3-carboxamide]",≤ 100 nM,≤ 100 nM
"COc1cc2nccc(Oc3ccc(NC(=O)c4ccc(C)n(-c5ccc(F)cn5)c4=O)cc3F)c2nc1OC [Compound 43, N-[4-[(6,7-Dimethoxy-1,5-naphthyridin-4-yl)oxy]-3-fluorophenyl]-1-(5-fluoropyridin-2-yl)-6-methyl-2-oxopyridine-3-carboxamide]",≤ 100 nM,≤ 100 nM
"COCCOc1cc2nccc(Oc3ccc(NC(=O)c4c(C)n(C)c(C)c(-c5cc6ccccc6o5)c4=O)cc3F)c2nc1OC [Compound 263, 5-(1-Benzofuran-2-yl)-N-[3-fluoro-4-[[6-methoxy-7-(2-methoxyethoxy)-1,5-naphthyridin-4-yl]oxy]phenyl]-1,2,6-trimethyl-4-oxopyridine-3-carboxamide]",300 to 1000 nM,≤ 100 nM
"COc1cc2nccc(Oc3ccc(NC(=O)c4c(C)ncc(-c5ncc(F)cc5C)c4O)cc3F)c2nc1OC [Compound 200, N-[4-[(6,7-Dimethoxy-1,5-naphthyridin-4-yl)oxy]-3-fluorophenyl]-5-(5-fluoro-3-methylpyridin-2-yl)-4-hydroxy-2-methylpyridine-3-carboxamide]",≤ 100 nM,≤ 100 nM
"COc1cc2nccc(Oc3ccc(NC(=O)c4c(C)cc(C)n(-c5ccc(F)cn5)c4=O)cc3)c2nc1OC [Compound 245, N-[4-[(6,7-Dimethoxy-1,5-naphthyridin-4-yl)oxy]phenyl]-1-(5-fluoropyridin-2-yl)-4,6-dimethyl-2-oxopyridine-3-carboxamide]",≤ 100 nM,≤ 100 nM
"COc1cc2nccc(Oc3ccc(NC(=O)c4cnc(C)c(-c5cccs5)c4O)cc3)c2nc1OC [Compound 256, N-[4-[(6,7-Dimethoxy-1,5-naphthyridin-4-yl)oxy]phenyl]-4-hydroxy-6-methyl-5-thiophen-2-ylpyridine-3-carboxamide]",≤ 100 nM,≤ 100 nM
"COc1cnc2c(Oc3ccc(NC(=O)c4c(C)n(C)cc(-c5ccc(F)cn5)c4=O)cc3F)ccnc2c1 [Compound 73, N-[3-Fluoro-4-[(7-methoxy-1,5-naphthyridin-4-yl)oxy]phenyl]-5-(5-fluoropyridin-2-yl)-1,2-dimethyl-4-oxopyridine-3-carboxamide]",300 to 1000 nM,≤ 100 nM

# Next, values leading:
IC50 [1],IC50 [2],Structure (SMILES)
≤ 100 nM,≤ 100 nM,"COc1cc2nccc(Oc3ccc(NC(=O)c4ccc(C)n(-c5ncc(F)cc5C)c4=O)cc3F)c2nc1OC [Compound 51, N-[4-[(6,7-Dimethoxy-1,5-naphthyridin-4-yl)oxy]-3-fluorophenyl]-1-(5-fluoro-3-methylpyridin-2-yl)-6-methyl-2-oxopyridine-3-carboxamide]"
≤ 100 nM,≤ 100 nM,"COCc1nc(C)c(-c2ccc(F)cn2)c(O)c1C(=O)Nc1ccc(Oc2ccnc3cc(OC)c(OC)nc23)c(F)c1 [Compound 214, N-[4-[(6,7-Dimethoxy-1,5-naphthyridin-4-yl)oxy]-3-fluorophenyl]-5-(5-fluoropyridin-2-yl)-4-hydroxy-2-(methoxymethyl)-6-methylpyridine-3-carboxamid]"
≤ 100 nM,≤ 100 nM,"COc1cnc2c(Oc3ccc(NC(=O)c4ccc(C)n(-c5ccc(F)cn5)c4=O)cc3F)ccnc2c1 [Compound 45, N-[3-Fluoro-4-[(7-methoxy-1,5-naphthyridin-4-yl)oxy]phenyl]-1-(5-fluoropyridin-2-yl)-6-methyl-2-oxopyridine-3-carboxamide]"
≤ 100 nM,≤ 100 nM,"COc1cnc2c(Oc3ccc(NC(=O)c4c(C)nc(C)c(-c5ccc(F)cn5)c4O)cc3F)ccnc2c1 [Compound 217, N-[3-Fluoro-4-[(7-methoxy-1,5-naphthyridin-4-yl)oxy]phenyl]-5-(5-fluoropyridin-2-yl)-4-hydroxy-2,6-dimethylpyridine-3-carboxamide]"
≤ 100 nM,≤ 100 nM,"COc1cc2nccc(Oc3ccc(NC(=O)c4cnc(C)c(-c5ccco5)c4O)cc3F)c2cc1OC [Compound 259, N-[4-(6,7-Dimethoxyquinolin-4-yl)oxy-3-fluorophenyl]-5-(furan-2-yl)-4-hydroxy-6-methylpyridine-3-carboxamide]"
≤ 100 nM,≤ 100 nM,"COc1cc2nccc(Oc3ccc(NC(=O)c4ccc(C)n(-c5ccncc5)c4=O)cc3F)c2nc1OC [Compound 221, N-[4-[(6,7-Dimethoxy-1,5-naphthyridin-4-yl)oxy]-3-fluorophenyl]-6-methyl-2-oxo-1-pyridin-4-ylpyridine-3-carboxamid]"
≤ 100 nM,≤ 100 nM,"COCCOc1cc2nccc(Oc3ccc(NC(=O)c4ccc(C)n(-c5ccc(F)cn5)c4=O)cc3F)c2nc1OC [Compound 50, N-[3-Fluoro-4-[[6-methoxy-7-(2-methoxyethoxy)-1,5-naphthyridin-4-yl]oxy]phenyl]-1-(5-fluoropyridin-2-yl)-6-methyl-2-oxopyridine-3-carboxamide]"
≤ 100 nM,≤ 100 nM,"COc1cc2nccc(Oc3ccc(NC(=O)c4c5n(cc(-c6cc(C)cs6)c4=O)CCOC5)cc3F)c2nc1OC [Compound 302, N-[4-[(6,7-Dimethoxy-1,5-naphthyridin-4-yl)oxy]-3-fluorophenyl]-7-(4-methylthiophen-2-yl)-8-oxo-3,4-dihydro-1H-pyrido[2,1-c][1,4]oxazine-9-carboxamide]"
